Laboratory results: patent US9273088B2, “Ginsenoside derivative compounds and the use thereof in protection against ischemia/reperfusion injury” (Macau University of Science and Technology, priority 2013, dated 2016)

Experiments:
H9c2 cells [1] = test: Cytotoxicity study in normoxia condition, MTT cell viability assay; format: cell-based, rat
Experimental: (§1) Embryonic rat heart derived cell line H9c2 (2-1), shorted in H9c2 cells, was purchased from ATCC (CRL-1446), which is a permanent cell line and derived from embryonic BDIX rat ventricular heart tissue. Dulbecco's Modified Eagle Medium, Fetal Bovine Serum, and Penicillin-Streptomycin-Glutamine, 2.5% Trypsin/EDTA solution, Phosphate-buffered saline from GIBCO® (Invitrogen™) were used.
(§2) H9c2 cells were cultured in DMEM medium supplemented with 10% fetal bovine serum, 1% glutamine, 50 U/ml penicillin and […] streptomycin. The culture atmosphere for H9c2 cells was 95% air with 5% carbon dioxide (CO2) at 37.0° C. The medium was replaced every 2-3 days. A stock of cells was grown in a 100 cm^2 culture dish and split before confluence at a subcultivation ratio of 1:4. Cells used for experiments were seeded at a density of 1.0×10^4 cells/well in a 96-well culture plate, and cells in each well were allowed to grow to 60-80% confluence within 24 h prior to drug treatment.
(§3) The cell viability was measured using the MTT colorimetric assay, which was based on the conversion of MTT to formazan crystals by mitochondrial dehydrogenase. Briefly, H9c2 cells were seeded in 96-well plates at 1×10^4 cells/well and incubated at 37° C. for 48 h. The cells were then treated with DMSO (H/R control), diazoxide (50 μM). Compounds A-G (at two concentrations of 12.5 μM or 25 μM) and incubated under hypoxia condition. The cells without any treatment and incubated under normoxia condition were used as normal control. At the end of the treatments, […] MTT (5 mg/ml) was added for 4 h and then […] MTT buffer (10% SDS solution, pH7.4) was added to each well. After overnight incubation and 30 s vibration, the absorbance was read at 490 nm wavelength. Results were expressed as the ratio of the number of viable cells with treatments relative to that of the normoxia control.
The cell line and reagents used, and cell culture methods, cell viability assay and statistical analysis employed were described in Example 2.
The cells were treated with desired concentrations of compounds A-G for 3 h, then the medium thereof was replaced with DMEM medium with 10% fetal bovine serum, 1% glutamine, 50 U/ml penicillin and […] streptomycin. The culture atmosphere for normaxia condition was 95% air with 5% carbon dioxide (CO2) at 37.0° C. The cells were then cultured in the incubator for designed periods. The cells without any treatment and incubated under normoxia condition were used as positive control.
Results were expressed as the ratio of the number of viable cells with treatments relative to that of the positive control.

H9c2 cells [2] = test: Hypoxia/reoxygenation (H/R) injury model, MTT cell viability assay; format: cell-based, rat; settings: for protective effect compared with the positive control drug: vs diazoxide 50 μM; for protective effect compared with the positive control drug / order of cardioprotective effects / viability of cardiomyocyte cells after H/R (ratio of viable cells relative to normoxia control): hypoxia/reoxygenation; for order of cardioprotective effects: rank order of the 7 derivative compounds; for viability of cardiomyocyte cells after H/R (ratio of viable cells relative to normoxia control): mean±SEM
Experimental: as §1, §2
After treatment with desired concentrations of drug for 3 h, the cells were washed twice with Krebs-Ringer Bicarbonate buffer (KRB; 115 mM NaCl, 4.7 mM KCl, 2.5 mM CaCl2, 1.2 mM KH2PO4, 1.2 mM MgSO4, 24 mM NaHCO3, 10 mM HEPES; pH 7.4). Aliquots of KRB supplemented with 0.01% (w/v) BSA were added to the cells immediately prior to hypoxia. A Billups-Rothenberg modular incubator chamber (Billups-Rothenberg, Inc.; DelMar, Calif.) was used to produce an in vitro Hypoxia/Reoxygenation challenge. In essence, cells were placed in the sealed chamber and the chamber was flushed with 100% nitrogen for 5 min at a flow rate of 25 liter/min. After closing all sealable connectors, the chamber was transferred to an incubator and the cells in the chamber were subjected to a period of hypoxia at 37° C. Reoxygenation was initiated by opening the chamber and then replacing the KRB with fresh DMEM medium. The cells were then cultured in the incubator under an atmosphere of 5% (v/v) CO2 in air at 37° C. for designed periods.
as §3
Data were expressed as mean±SEM. One-way ANOVA with multiple comparisons using the Dunnett's Multiple Comparison Test was used to analyze differences between groups. All statistical analysis was performed using Prism 5 for Windows version 5.00 (GraphPad software, Inc., La Jolla, Calif. 92037 USA). Differences were considered significant if p<0.05.

Row | Compound | cytotoxicity under normoxia condition (H9c2 cells [1]; equivalent dosages) | protective effect compared with the positive control drug (H9c2 cells [2]; 12.5 or 25 μM) | order of cardioprotective effects (H9c2 cells [2]) | other results
1 | 3-O-[β-D-glucopyranosyl(1→2)-β-D-glucopyranosyl]-3β,12β,20(R), 24(S)-tetrahydroxydammar-25-ene and its 24(R) epimer [Compound C] | no significant cytotoxicity | higher than the positive control drug | G>F>C>A>D>B, E | 
2 | 3-O-[β-D-glucopyranosyl(1→2)-β-D-glucopyranosyl]-3β,12β,20(R), 25-tetrahydroxydammar-23-ene [Compound D] | no significant cytotoxicity | higher than the positive control drug | G>F>C>A>D>B, E | viability of cardiomyocyte cells after H/R (ratio of viable cells relative to normoxia control) (H9c2 cells [2]; 25 μM, 3 h pretreatment): 61.06±0.30%
3 | 3-O-[β-D-glucopyranosyl(1→2)-β-D-glucopyranosyl]-3β,12β,20(S),25-tetra-hydroxydammar-23-ene [Compound B] |  |  | G>F>C>A>D>B, E | 
4 | 3-O-[β-D-glucopyranosyl(1→2)-β-D-glucopyranosyl]-3β,12β,20(S), 24(S)-tetrahydroxydammar-25-ene and its 24(R) epimer [Compound A] | no significant cytotoxicity | higher than the positive control drug | G>F>C>A>D>B, E | cytotoxicity under normoxia condition (H9c2 cells [1]; 12.5 μM, vs untreated control): no statistically significant cytotoxicity; cytotoxicity under normoxia condition (H9c2 cells [1]; 25 μM, vs untreated control): no statistically significant cytotoxicity
5 | 3-O-[β-D-glucopyranosyl(1→2)-β-D-glucopyranosyl]-20(R), 24(S)-epoxydammarane-3β,12β-triol and its 24(R) epimer [Compound E] | no significant cytotoxicity |  | G>F>C>A>D>B, E | 
6 | CC1=NS(=O)(=O)c2cc(Cl)ccc2N1 [Positive 50, diazoxide, reference compound] |  |  |  | viability of cardiomyocyte cells after H/R (ratio of viable cells relative to normoxia control) (H9c2 cells [2]; 50 μM positive control, p<0.001): 61.69±0.37%
7 | CC(C)=CCC[C@](C)(O)[C@H]1CC[C@]2(C)[C@@H]1[C@H](O)C[C@@H]1[C@@]3(C)CC[C@H](O[C@@H]4O[C@H](CO)[C@@H](O)[C@H](O)[C@H]4O[C@@H]4O[C@H](CO)[C@@H](O)[C@H](O)[C@H]4O)C(C)(C)[C@@H]3CC[C@]12C [Rg3, reference compound] |  |  |  | protective effect against I/R injury induced by hypoxia/reoxygenation, compared with H/R control group (H9c2 cells [2]; 12.5 or 25 μM): have protective effect
